The target of this assay is T1, human P2X3 receptor (Homo sapiens, UniProt P56373).
T1 construct: expressed in transfected cells; host or cells: CHO-K1
T1 sequence (P56373 1-397): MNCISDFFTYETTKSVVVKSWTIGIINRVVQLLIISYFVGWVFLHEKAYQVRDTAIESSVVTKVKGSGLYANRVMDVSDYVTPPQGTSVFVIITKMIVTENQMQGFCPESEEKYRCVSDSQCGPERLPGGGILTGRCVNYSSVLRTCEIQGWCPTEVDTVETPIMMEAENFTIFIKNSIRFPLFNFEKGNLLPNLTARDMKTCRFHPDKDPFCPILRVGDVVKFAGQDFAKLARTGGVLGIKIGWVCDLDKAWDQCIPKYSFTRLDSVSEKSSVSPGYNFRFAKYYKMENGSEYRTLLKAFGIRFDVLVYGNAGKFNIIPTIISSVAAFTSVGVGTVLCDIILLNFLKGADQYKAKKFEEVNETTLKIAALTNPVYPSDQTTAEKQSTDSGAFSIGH
Briefly: Calcium luminescence (photoprotein) assay in CHO-K1 cells co-expressing human P2X3 receptor, α,β-Met-ATP stimulation, FLEXSTATION readout. The settings on record: Table 6; human P2X3 receptor antagonist activity, CHO-K1 cells, α,β-Met-ATP; read-out: h-P2X3 IC50. The format is cell-based. The protocol: The assay for the human purinergic P2X3 receptor has been adapted to the internal screening instrumentation using the FLEXSTATION as reader and a photoprotein as luminescent readout. The assay consists of CHO-K1 cells recombinantly co-expressing the human P2rx3 receptor and a Ca^2+ sensitive photoprotein. Cells are maintained in DMEM F-12 (1:1) mixture (LONZA cat. no BE04-687F/U1) supplemented with 9 mL of 100 mM Sodium Pyruvate (LONZA cat. no BE13-115E), 29 mL of 7.5% Sodium Bicarbonate (LONZA cat. no: BE17-613E), 5.5 mL of 1 M Hepes (LONZA cat. no BE17-737E), 5 mL of 100× Penicillin/Streptomycin (LONZA cat. no DE17-602E) and 50 mL of Fetal Bovine Serum (Sigma cat. no F7524), 1 mg/mL G418 (Sigma cat. no G8168) and 5 µg/ml puromycin (Sigma cat. no P9620). Standard propagation conditions consist of seeding in a P75 flask twice a week, recovering about 20×10^6 cells, corresponding to about 80% confluency. Cells were seeded into black-walled clear bottom 96 well plates at a density of 40000 cells/well in a Tyrode's buffer (Standard Tyrode's buffer: in house solution, 130 mM NaCl, 5 mM KCl, 2 mM CaCl2, 5 mM NaHCO3, 1 mM MgCl2, 20 mM HEPES, pH 7.4). After 24 h the culture medium was replaced with 200 μL/well of coelenterazine in Tyrode's buffer (Coelenterazine: from BIOSYNTH (cat. no C-7001). 10 mM stock solution was prepared in DMSO and glutathione and stored at −20° C.). The plates were incubated for 4 hours at 37° C., and injected with 10 μL/well of test compounds at 25× concentration in Tyrode's buffer. After 4 minutes a second injection of 50 μL/well of 5× α,β-Met-ATP in Tyrode's buffer (α,β-Met-ATP: from Tocris (cat. no 3209), was dissolved at 100 mM in water and stored in aliquots at −20° C.) was performed and the signal of the emitted luminescence was recorded by FLEXSTATION III (Molecular Devices).
The inhibition curves of the tested compounds at cloned P2X3 receptor were determined by nonlinear regression analysis using software Prism 4.0 (Graphpad, San Diego, Calif.). The IC50 values and pseudo-Hill slope coefficients were estimated by the program.

What is called IC50 is the concentration that inhibits the measured activity by half. As to `O=C(C1CN=C2c3ncc(N4CCOCC4)cc3N(Cc3ccc(Cl)cc3)C(=O)N21)N1CCOCC1` (stereo not drawn) [Example 55, 6-(4-chlorobenzyl)-8-(morpholin-4-y1)-3-(morpholin-4-ylcarbonyl)-2,6-dihydroimidazo[1,2-c]pyrido[2,3-e]pyrimidin-5(3H)-one], the IC50 was 2.44 µM.
The value for `COc1ccc(CN2C(=O)N3CC(CC(F)(F)F)N=C3c3ncc(N4CCOCC4)cc32)cc1` (stereo not drawn) [Example 56, 6-(4-methoxybenzyl)-8-(morpholin-4-y1)-2-(2,2,2-trifluoroethyl)-2,6-dihydroimidazo[1,2-c]pyrido[2,3-e]pyrimidin-5(3H)-one] was 0.345 µM; that for `COc1ccc(CN2C(=O)N3CC(COC(C)(C)C)N=C3c3ncc(N4CCOCC4)cc32)cc1` (stereo not drawn) [Example 57, 2-(tert-butoxymethyl)-6-(4-methoxybenzyl)-8-(morpholin-4-yl)-2,6-dihydroimidazo[1,2-c]pyrido[2,3-e]pyrimidin-5(3H)-one] was 3.28 µM.
The value for `COc1cc(CN2C(=O)N3CC(C(C)C)N=C3c3ncc(C(=O)NC4CCOCC4)cc32)cc(OC)c1` (stereo not drawn) [Example 58, 6-(3,5-dimethoxybenzyl)-5-oxo-2-(propan-2-yl)-n-(tetrahydro-2H-pyran-4-yl)-2,3,5,6-tetrahydroimidazo[1,2-c]pyrido[2,3-e]pyrimidine-8-carboxamide] was 9.2 µM; that for `COc1cc(CN2C(=O)N3CC(C(C)C)N=C3c3ncc(C(=O)N4CCOCC4)cc32)cc(OC)c1` (stereo not drawn) [Example 60, 6-(3,5-dimethoxybenzyl)-8-(morpholin-4-ylcarbonyl)-2-(propan-2-yl)-2,6-dihydroimidazo[1,2-c]pyrido[2,3-e]pyrimidin-5(3H)-one] was 1.1 µM.
The value for `O=C1N2CC(CC3CCCCC3)N=C2c2ncc(N3CCOCC3)cc2N1Cc1ccc(Cl)cc1` (stereo not drawn) [Example 61, 6-(4-chlorobenzyl)-2-(cyclohexylmethyl)-8-(morpholin-4-yl)-2,6-dihydroimidazo[1,2-c]pyrido[2,3-e]pyrimidin-5(3H)-one] was 1.08 µM; that for `CC(C)CCC1CN2C(=O)N(Cc3ccc(Cl)cc3)c3cc(N4CCOCC4)cnc3C2=N1` (stereo not drawn) [Example 62, 6-(4-chlorobenzyl)-2-(3-methylbutyl)-8-(morpholin-4-yl)-2,6-dihydroimidazo[1,2-c]pyrido[2,3-e]pyrimidin-5(3H)-one] was 0.72 µM; that for `CC(C)CCC1CN=C2c3ncc(N4CCOCC4)cc3N(Cc3ccc(Cl)cc3)C(=O)N21` (stereo not drawn) [Example 63, 6-(4-chlorobenzyl)-3-(3-methylbutyl)-8-(morpholin-4-yl)-2,6-dihydroimidazo[1,2-c]pyrido[2,3-e]pyrimidin-5(3H)-one] was 0.299 µM.
Take `CC(C)CC1C(=O)N=C2c3ncc(N4CCOCC4)cc3N(Cc3ccc(Cl)cc3)C(=O)N21` (stereo not drawn) [Example 64, 6-(4-chlorobenzyl)-3-(2-methylpropyl)-8-(morpholin-4-yl)imidazo[1,2-c]pyrido[2,3-e]pyrimidine-2,5(3H,6H)-dione]: the IC50 turned out to be 0.109 µM.
Regarding `COCCC1CN2C(=O)N(Cc3ccc(OC)cc3)c3cc(N4CCOCC4)cnc3C2=N1` (stereo not drawn) [Example 65, 6-(4-methoxybenzyl)-2-(2-methoxyethyl)-8-(morpholin-4-yl)-2,6-dihydroimidazo[1,2-c]pyrido[2,3-e]pyrimidin-5(3H)-one], the half-inhibitory concentration (IC50) is 1.79 µM.
On to `COCCC1CN=C2c3ncc(N4CCOCC4)cc3N(Cc3ccc(OC)cc3)C(=O)N21` (stereo not drawn) [Example 66, 6-(4-methoxybenzyl)-3-(2-methoxyethyl)-8-(morpholin-4-yl)-2,6-dihydroimidazo[1,2-c]pyrido[2,3-e]pyrimidin-5(3H)-one], for which the concentration for half-maximal inhibition (IC50) is 2.28 µM.
As for `COc1ccc(CN2C(=O)N3C(=NCC3COC(C)(C)C)c3ncc(N4CCOCC4)cc32)cc1` (stereo not drawn) [Example 67, 3-(tert-butoxymethyl)-6-(4-methoxybenzyl)-8-(morpholin-4-yl)-2,6-dihydroimidazo[1,2-c]pyrido[2,3-e]pyrimidin-5(3H)-one], the 50% inhibitory concentration (IC50) was found to be 0.218 µM.

(Values after patent US11999732B2, “P2X3 receptor antagonists” (RECORDATI INDUSTRIA CHIMICA E FARMACEUTICA SPA, priority 2018, dated 2024).)
